What is called solubility is the concentration that dissolves in the medium under given conditions.

We go through 7 compounds from patent US10123969B2, “Osmotic enhancement of drug/therapeutic delivery to the brain following infusion or injection into the cerebrospinal fluid” (Wisconsin Alumni Research Foundation, priority 2015, dated 2018).

Converted amounts (≈) assume the structure as drawn. “And” between values parts separate entries of the source, which are not always exact repeats. Equal values may be shown once. “Also recorded” adds a separate entry of the source. Read-outs that look alike come from different tables or passages of the source.

The conditions of series [1]: cited from earlier work.
The conditions of series [2]: hypertonic solutions, animals (Speck et al. 1988); cited from earlier work.
The nature of series [3]: Osmolality of mannitol infusion solutions. Type of series: physicochemical. How it is done: (§1) AlexaFluor 488 goat-anti-rabbit IgG was prepared in 0.27 M or 0.75 M mannitol in 0.01M PBS using 0.5 mL Amicon Ultra 100 kDa molecular weight cutoff centrifugal filters for buffer exchange. IgG was added to the filter and washed/spun from 0.5 mL three times with 0.27 M or 0.75 M mannitol solution (osmolality 507 mOsm/kg and 988 mOsm/kg, respectively); each spin was 10 minutes at 14,000 g. Recovery spin was 2 minutes at 1,000 g. Concentration of IgG protein (absorbance at 280 nm) was measured using a NanoDrop 2000 (Thermo Fisher), and after concentration/buffer exchange in mannitol the protein concentration was diluted to the same concentration so animals received identical amounts of IgG whether administered in provided buffer or buffer with mannitol.
We have measured the osmolality of both the 0.27 M mannitol (507-564 mOsm/kg) and 0.75 M mannitol (988-1126 mOsm/kg) solutions.

Series [4] can be described thus: Confocal imaging of cerebral internal carotid artery: IgG access to smooth muscle basement membrane. The class given is in vivo, rat. The method, then: as §1
Series [5] in a line: Perivascular counting of IgG signal in brain sections after intracisternal infusion with or without mannitol (ex vivo fluorescence, ImageJ). More on the design: species or system rat. The method, then: Female Sprague-Dawley rats (180-240 g) were anesthetized to a surgical plane of anesthesia using 1.3 g/kg intraperitoneal urethane (boostered to effect), tracheotomized, and placed in a stereotaxic frame (Stoelting). Atropine (0.1 mg/kg every two hours) was given subcutaneously to reduce fluid secretion in lungs. An incision was made on the back of the neck and the muscles were dissected from the occipital bone to expose the atlanto-occipital membrane, which was retracted to reveal the dura overlying the cisterna magna. A custom cannula (˜1 cm long) made of 33 GA polyether ether ketone (PEEK, Plastics One) was connected to a Hamilton syringe controlled by an infusion pump (Quintessential Stereotaxic Injector, Stoelting) via polyethylene-10 tubing (Solomon Scientific). The tubing was prefilled with infusate (i.e., antibody solution with or without mannitol), the dura punctured with a dental needle, and the PEEK cannula immediately inserted at a 60-degree angle from the horizontal, advanced 1 mm into the cisterna magna, and sealed with cyanoacrylate.
For ex vivo fluorescence, AlexaFluor488 goat-anti-rabbit IgG in PBS (as provided) or in PBS with mannitol (described below) was infused at 1.6 uL/min for 50 minutes (80 uL total), a rate that is expected to be physiological as it is approximately half the CSF production rate and has been shown not to increase intracranial pressure in rats (Yang et al. J Trans Med 2013). The abdominal aorta was then cannulated and thirty minutes after the infusion completed the animal was perfused with ˜50 mL ice cold 0.01 M PBS followed by ˜450 mL 4% paraformaldehyde in 0.1 M phosphate buffer following a blood draw. The brain was removed and placed in 4% paraformaldehyde or phosphate buffered saline overnight, then sliced into 100 micrometer sections using a vibratome. Sections were imaged on an Olympus MVX10 using an Orca-flash 2.8 CMOS camera (Hamamatsu), a Lumen Dynamics X-Cite 120Q illuminator and an appropriate filter set (Chroma, U-M49002XL).
as §1
To quantify perivascular signal between treatments, images were opened in ImageJ/Fiji, thresholded to eliminate background, and the Analyze Particles command was used to count and outline ‘particles’, or perivascular signal, with no restrictions on size or circularity, as well as providing additional information such as circularity, area, and average size.

Series [6] can be described thus: Fluorescence imaging of spinal cord slices after intrathecal infusion of IgG with or without mannitol. Type of series: in vivo, rat. How it is done:
FIG. 8 (A-C). […] The spinal cord has a simple structure—an outer spinal white matter that has few blood vessels and an inner spinal gray matter which has a dense network of blood vessels.
Female Sprague-Dawley rats (180-240 g) were anesthetized to a surgical plane of anesthesia using 1.3 g/kg intraperitoneal urethane (boostered to effect), tracheotomized, and placed in a stereotaxic frame (Stoelting). Atropine (0.1 mg/kg every two hours) was given subcutaneously to reduce fluid secretion in lungs. […]
For ex vivo fluorescence, AlexaFluor488 goat-anti-rabbit IgG in PBS (as provided) or in PBS with mannitol (described below) was infused at 1.6 uL/min for 50 minutes (80 uL total), a rate that is expected to be physiological as it is approximately half the CSF production rate and has been shown not to increase intracranial pressure in rats (Yang et al. J Trans Med 2013). […]
AlexaFluor 488 goat-anti-rabbit IgG was prepared in 0.27 M or 0.75 M mannitol in 0.01M PBS using 0.5 mL Amicon Ultra 100 kDa molecular weight cutoff centrifugal filters for buffer exchange. […] Concentration of IgG protein (absorbance at 280 nm) was measured using a NanoDrop 2000 (Thermo Fisher), and after concentration/buffer exchange in mannitol the protein concentration was diluted to the same concentration so animals received identical amounts of IgG whether administered in provided buffer or buffer with mannitol.

Consider `C[C@H](N)C(=O)O` [L-Alanine], for which the solubility in series [1] (at 25 C (Needham et al. 1971)) was 1670 mM (≈ 149 mg/mL).
Regarding `N[C@@H](Cc1ccccc1)C(=O)O` [L-Phenylalanine], the solubility in series [1] (at 25 C (Needham et al. 1971)) is 208 mM (≈ 34.4 mg/mL).
With `CC(C)[C@H](N)C(=O)O` [L-Valine], the solubility in series [1] (at 25 C (Needham et al. 1971)) was 514 mM (≈ 60.2 mg/mL).
In the case of `OC[C@@H](O)[C@@H](O[C@H]1O[C@H](CO)[C@@H](O)[C@H](O)[C@H]1O)[C@H](O)[C@@H](O)CO` [Maltitol], the solubility in series [1] (at 37 C (body temperature)) is 5810 mM (≈ 2000 mg/mL).
Regarding `OC[C@@H](O)[C@@H](O)[C@H](O)[C@@H](O)CO` [Sorbitol], the solubility in water entry in series [1] (Merck Index) is reported as “up to 83%”.
As to `O=C[C@H](O)[C@@H](O)[C@H](O)CO` [Xylose], the solubility was 8320 mM (≈ 1250 mg/mL) in series [1] (Merck Index, temperature not given) and 3660 mM (≈ 549 mg/mL) in series [1] (at 25 C (Gabas et al. 1988)).
On to `OC[C@@H](O)[C@@H](O)[C@H](O)[C@H](O)CO` [mannitol], for which the “tolerability of intrathecal infusion” value in series [2] is on record as “well tolerated”. Besides, the osmolality in series [3] (0.27 M mannitol solution) was 507 mOsm/kg and 507-564 mOsm/kg; in series [3] (0.75 M mannitol solution) it was 988 mOsm/kg and 988-1126 mOsm/kg. The entries for the “IgG access to the basement membrane of the smooth muscle layer (in words)” value in series [4] (0.27 M mannitol co-infusion vs IgG without mannitol) and in series [4] (0.75 M mannitol co-infusion vs IgG without mannitol) were “modestly increased; also recorded: no visible improvement” and “strikingly increased; also recorded: markedly improved; also recorded: noticeably increased”, respectively. Also, the “perivascular access of IgG (in words)” value in series [5] (0.27 M mannitol co-infusion vs IgG alone (controls)) is “improved access; also recorded: slight increase”. In addition, the “brain distribution of IgG via the perivascular spaces (in words)” value in series [5] (0.75 M mannitol co-infused with labeled 150 kDa IgG) is “dramatically greater brain distribution”. The “number of vessels accessed by IgG (in words)” value in series [5] (0.75 M mannitol co-infusion vs 0.27 M mannitol co-infusion or IgG alone) was “significantly increased”. Moreover, in series [5] (IgG with 0.75 M mannitol co-infusion vs single domain antibody without mannitol), the “number of vessels with perivascular signal (in words)” value is reported as “significantly higher number of vessels”. For the same compound, the “dose dependence of perivascular access of IgG” value in series [5] (mannitol between 0.27 M and 0.75 M) is “dose-dependent manner; also recorded: dose-dependent increase”. Also, the solubility in series [1] (at 40 C (just above body temperature)) is 2000 mM (≈ 364 mg/mL); in series [1] (at 40 C (just above body temperature), listed as Mannitol) it was 1900 to 1940 mM. The “number of IgG perivascular profiles in spinal gray (in words)” value in series [6] (0.27 M mannitol co-infusion vs IgG alone) is “slight increase”. Moreover, in series [6] (0.75 M mannitol co-infusion), the “number of perivascular spaces with IgG signal in spinal cord (in words)” value is listed as “striking increase”.
